Reference: ChEMBL document CHEMBL5518218, “Discovery of Novel PD-L1 Small-Molecular Inhibitors with Potent In Vivo Anti-tumor Immune Activity” (J Med Chem, 2024)
≈ marks a conversion by molar mass, not a printed value. Calls of active or inactive are those of the source. The calls are words filed in the database; no cut-off is given here.

Legend:
[1] = molecular target: T1, Programmed cell death protein 1/Programmed cell death 1 ligand 1 (Homo sapiens, UniProt Q9NZQ7); assay: Inhibition of PD-1/PD-L1 interaction (unknown origin) incubated for 15 min by HTRF assay; assay type: protein-complex assay
T1 sequence (Q15116 whole entry): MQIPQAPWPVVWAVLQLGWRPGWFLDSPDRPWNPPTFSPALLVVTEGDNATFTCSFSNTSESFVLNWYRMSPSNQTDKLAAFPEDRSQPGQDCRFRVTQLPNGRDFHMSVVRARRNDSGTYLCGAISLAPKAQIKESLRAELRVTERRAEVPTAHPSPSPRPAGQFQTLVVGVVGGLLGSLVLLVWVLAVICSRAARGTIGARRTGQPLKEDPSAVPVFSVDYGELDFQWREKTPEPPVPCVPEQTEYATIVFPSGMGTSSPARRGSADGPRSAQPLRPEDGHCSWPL
T1 sequence (Q9NZQ7 whole entry): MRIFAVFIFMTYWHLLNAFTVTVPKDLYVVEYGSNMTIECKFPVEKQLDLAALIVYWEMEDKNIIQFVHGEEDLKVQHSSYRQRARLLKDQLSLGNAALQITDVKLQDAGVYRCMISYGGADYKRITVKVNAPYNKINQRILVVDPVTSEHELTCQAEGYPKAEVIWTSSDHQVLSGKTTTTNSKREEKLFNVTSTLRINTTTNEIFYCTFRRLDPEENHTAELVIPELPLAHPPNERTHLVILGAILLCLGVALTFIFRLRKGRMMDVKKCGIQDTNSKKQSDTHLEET

[2] = molecular target: T2, Programmed cell death protein 1/Programmed cell death 1 ligand 1 (Homo sapiens, UniProt Q15116+Q9NZQ7); assay: Inhibition of interaction of human PD-1 expressed in Jurkat T cells co-transfected with NFAT/human PD-L1 expressed in CHO-K1 cells co-expressing aAPC assessed as maximum relative light unit preincubated with CHO-K1 cells followed by Jurkat cell addition and measured after 6 hrs by automated microplate spectrophotometer analysis; assay type: cell-based
T2 sequence (Q15116 whole entry): as the sequence (Q15116 whole entry) above
T2 sequence (Q9NZQ7 whole entry): as the sequence (Q9NZQ7 whole entry) above

Jurkat = assay: Cytotoxicity against human Jurkat cells expressing PD-1 assessed as reduction in cell viability at 50 uM incubated for 6 hrs by CCK-8 assay; assay type: functional, cell-based
[3] = molecular target: Programmed cell death protein 1 (Homo sapiens) (UniProt Q15116); assay: Inhibition of human PD-1 expressed in Jurkat T cells co-transfected with NFAT by automated microplate spectrophotometer analysis; assay type: cell-based
Chain of Programmed cell death protein 1 (Homo sapiens) (Q15116 whole entry): as the sequence (Q15116 whole entry) above

[4] = molecular target: T2, Programmed cell death protein 1/Programmed cell death 1 ligand 1; assay: (§1) Inhibition of interaction of human PD-1 expressed in Jurkat T cells co-transfected with NFAT/human PD-L1 expressed in CHO-K1 cells co-expressing aAPC preincubated with CHO-K1 cells followed by Jurkat cell addition and measured after 6 hrs by automated microplate spectrophotometer analysis; assay type: cell-based; settings: cho-k1
CHO-K1 [5] = assay: Cytotoxicity against […] cells expressing PD-L1 assessed as reduction in cell viability at 50 uM incubated for 6 hrs by CCK-8 assay; assay type: toxicity, cell-based, Cricetulus griseus; settings: chinese hamster, cho-k1, 6 h
MC-38 [6] = assay: Antitumor activity against mouse MC38 cells implanted in C57BL/6J mouse assessed as tumor growth inhibition at 5 mg/kg, po measured for 20 days; assay type: functional; settings: MC-38, 480 h, time 20 day, read-out: TGI
[7] = molecular target: T1, Programmed cell death protein 1/Programmed cell death 1 ligand 1; assay: as §1; assay type: cell-based
[8] = molecular target: Programmed cell death 1 ligand 1 (Homo sapiens, UniProt Q9NZQ7); assay: Binding affinity to his-tagged human PD-L1 assessed as dissociation constant by SPR analysis
Chain of Programmed cell death 1 ligand 1 (Homo sapiens, UniProt Q9NZQ7) (Q9NZQ7 whole entry): as the sequence (Q9NZQ7 whole entry) above

PBMC [9] = assay: Induction of antitumor immunity in human PBMC cells expressing PD-L1 assessed as increase in IFN-gamma expression incubated for 12 hrs by ELISA analysis; assay type: functional, cell-based; settings: dose 0.1-10 µM
PBMC [10] = assay: Induction of antitumor immunity in human PBMC cells expressing PD-L1 assessed as increase in IL-2 expression incubated for 12 hrs by ELISA analysis; assay type: functional, cell-based; settings: dose 0.1-10 µM
PBMC [11] = assay: Induction of antitumor immunity in human PBMC cells assessed as increase in IFN-gamma expression at 0.1 to 10 uM incubated for 12 hrs by ELISA analysis; assay type: functional, cell-based; settings: dose 0.1-10 µM
CHO-K1 [12] = assay: Reduction in cell surface PD-L1 expression in CHO-K1 cells expressing aAPC incubated for 24 hrs by flow cytometry analysis; assay type: functional, cell-based; settings: Cricetulus griseus, dose 0.1-10 µM
CHO-K1 [13] = assay: Reduction in cell surface PD-L1 expression in CHO-K1 cells expressing aAPC at 10 uM incubated for 24 hrs by immunofluorescence based microscopic analysis; assay type: functional; settings: Cricetulus griseus
CHO-K1 [14] = assay: Induction of PD-L1 internalization in CHO-K1 cells assessed as increase in PD-L1 concentration in cytoplasm at 10 uM incubated for 12 hrs by DIL-staining based confocal microscopic analysis analysis; assay type: functional, cell-based; settings: Cricetulus griseus
CHO-K1 [15] = assay: Induction of PD-L1 internalization in CHO-K1 cells assessed as increase in PD-L1 concentration in nucleus at 10 uM incubated for 12 hrs by DIL-staining based confocal microscopic analysis analysis; assay type: functional, cell-based; settings: Cricetulus griseus
[16] = Half life in Sprague-Dawley rat at 50 mg/kg, po measured upto 24 hrs by LC-MS/MS analysis; assay type: ADME, organism-based; settings: in vivo
[17] = molecular target: Programmed cell death 1 ligand 1 (Mus musculus, UniProt Q9EP73); assay: Binding affinity to his-tagged mouse PD-L1 assessed as dissociation constant by SPR analysis
Chain of Programmed cell death 1 ligand 1 (Mus musculus, UniProt Q9EP73) (Q9EP73 whole entry): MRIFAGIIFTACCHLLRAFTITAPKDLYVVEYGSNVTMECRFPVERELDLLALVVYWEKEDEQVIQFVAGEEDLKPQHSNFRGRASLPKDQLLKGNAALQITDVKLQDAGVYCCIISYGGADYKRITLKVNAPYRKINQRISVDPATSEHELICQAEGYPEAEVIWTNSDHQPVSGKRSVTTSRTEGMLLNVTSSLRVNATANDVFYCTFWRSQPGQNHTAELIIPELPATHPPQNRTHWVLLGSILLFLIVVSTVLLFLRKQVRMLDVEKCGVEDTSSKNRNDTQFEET

[18] = Tmax in Sprague-Dawley rat at 50 mg/kg, po measured upto 24 hrs by LC-MS/MS analysis; assay type: ADME, organism-based; settings: in vivo
[19] = Cmax in Sprague-Dawley rat at 50 mg/kg, po measured upto 24 hrs by LC-MS/MS analysis; assay type: ADME, organism-based; settings: in vivo
[20] = AUC (0 to t) in Sprague-Dawley rat at 50 mg/kg, po measured upto 24 hrs by LC-MS/MS analysis; assay type: ADME, organism-based; settings: in vivo
[21] = Lipophilicity, log D of the compound at pH 7.4; assay type: physicochemical; settings: buffer
[22] = Water solubility of the compound; assay type: physicochemical
[23] = Stability in human liver microsomes assessed as half life; assay type: ADME, Microsome
[24] = Mutagenicity in Salmonella typhimurium TA98 by mini-Ames test; assay type: toxicity; settings: salmonella enterica subsp. enterica serovar typhimurium
[25] = Mutagenicity in Salmonella typhimurium TA100 by mini-Ames test; assay type: toxicity; settings: salmonella enterica subsp. enterica serovar typhimurium
[26] = molecular target: Voltage-gated inwardly rectifying potassium channel KCNH2 (Homo sapiens, UniProt Q12809); assay: Inhibition of hERG upto 30 uM; assay type: toxicity
Chain of Voltage-gated inwardly rectifying potassium channel KCNH2 (Q12809 whole entry): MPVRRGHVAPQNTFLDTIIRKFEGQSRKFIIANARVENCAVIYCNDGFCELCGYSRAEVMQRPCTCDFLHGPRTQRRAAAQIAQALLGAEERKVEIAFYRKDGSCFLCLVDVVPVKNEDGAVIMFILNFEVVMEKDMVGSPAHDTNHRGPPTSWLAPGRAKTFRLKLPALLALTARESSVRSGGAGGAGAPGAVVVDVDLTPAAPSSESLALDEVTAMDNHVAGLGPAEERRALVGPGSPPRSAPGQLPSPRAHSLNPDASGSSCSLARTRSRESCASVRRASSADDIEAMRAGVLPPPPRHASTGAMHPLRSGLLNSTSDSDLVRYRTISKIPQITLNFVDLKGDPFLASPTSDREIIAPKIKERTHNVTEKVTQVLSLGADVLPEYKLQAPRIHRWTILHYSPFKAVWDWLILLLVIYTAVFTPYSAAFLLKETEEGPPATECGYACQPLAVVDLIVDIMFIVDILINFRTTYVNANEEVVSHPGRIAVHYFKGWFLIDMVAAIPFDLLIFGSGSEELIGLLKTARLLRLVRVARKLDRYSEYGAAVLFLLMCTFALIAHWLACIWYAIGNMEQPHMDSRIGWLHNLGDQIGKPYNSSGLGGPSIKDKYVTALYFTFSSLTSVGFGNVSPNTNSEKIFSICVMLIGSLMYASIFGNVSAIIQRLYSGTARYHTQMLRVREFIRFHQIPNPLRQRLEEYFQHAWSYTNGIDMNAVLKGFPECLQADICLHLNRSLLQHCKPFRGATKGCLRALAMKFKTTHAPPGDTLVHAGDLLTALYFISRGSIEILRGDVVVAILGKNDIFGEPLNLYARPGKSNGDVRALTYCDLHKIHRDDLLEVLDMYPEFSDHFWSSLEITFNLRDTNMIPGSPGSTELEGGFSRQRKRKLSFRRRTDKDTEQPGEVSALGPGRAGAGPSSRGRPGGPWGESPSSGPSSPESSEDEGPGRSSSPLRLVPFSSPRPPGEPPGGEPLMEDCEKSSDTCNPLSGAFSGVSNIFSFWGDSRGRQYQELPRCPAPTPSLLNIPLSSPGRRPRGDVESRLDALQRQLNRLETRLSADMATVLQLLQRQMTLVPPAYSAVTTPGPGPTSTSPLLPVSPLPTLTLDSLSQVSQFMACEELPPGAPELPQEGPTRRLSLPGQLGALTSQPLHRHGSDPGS

MC-38 [27] = assay: Cytotoxicity against mouse MC38 cells assessed as effect on cell viability at 0.07 to 150 uM incubated for 48 hrs by CCK-8 assay; assay type: functional, cell-based; settings: dose 0.07-150 µM
CT26 = assay: Cytotoxicity against mouse CT26 cells assessed as effect on cell viability at 0.07 to 150 uM incubated for 48 hrs by CCK-8 assay; assay type: functional, cell-based; settings: dose 0.07-150 µM

With `O=C(O)[C@@H](CO)NCc1cc(Cl)c(OCc2cccc(-c3cccc(OCCCCN4CCC(O)CC4)c3)c2Cl)cc1OCc1ccc2nonc2c1` the IC50 [1] was 3.3 nM.

Compound `O=C(O)[C@@H](CO)NCc1cc(Cl)c(OCc2cccc(-c3cccc(OCCN4CCOCC4)c3)c2Cl)cc1OCc1ccc2nonc2c1` has an IC50 [1] of 121 nM.

Work on `O=C(O)C1CCN(CCCCOc2cccc(-c3cccc(COc4cc(OCc5ccc6nonc6c5)c(CN[C@H](CO)C(=O)O)cc4Cl)c3Cl)c2)CC1` yielded an IC50 [1] of 8.8 nM.

With `CCN(CC)CCCOc1cccc(-c2cccc(COc3cc(OCc4ccc5nonc5c4)c(CN[C@H](CO)C(=O)O)cc3Cl)c2Cl)c1` the IC50 [1] was 78.3 nM.

With `O=C(O)[C@@H](CO)NCc1cc(Cl)c(OCc2cccc(-c3ccccc3)c2Br)cc1OCc1ccc2nonc2c1` [listing 1 of 3 here] the Activity [2] was 1.8 RLU, the Activity (Jurkat) was “Active” and the inhibition [3] was “inactive”.

Compound `O=C(O)[C@@H](CO)NCc1cc(Cl)c(OCc2cccc(-c3cccc(OCCCCN(CCO)CCO)c3)c2Cl)cc1OCc1ccc2nonc2c1` has an IC50 [1] of 8.2 nM.

With `CCN(CC)C(=O)CCOc1cccc(-c2cccc(COc3cc(OCc4ccc5nonc5c4)c(CN[C@H](CO)C(=O)O)cc3Cl)c2Cl)c1` the IC50 [1] was 187 nM, the EC50 [4] was “Not Active” and the Activity (Jurkat) was “Active”. For the same compound, the Activity (CHO-K1 [5]) was “Non-Toxic”.

Compound `O=C(O)[C@@H](CO)NCc1cc(Cl)c(OCc2cccc(-c3cccc(OCCCCN4CCC(O)CC4)c3)c2F)cc1OCc1ccc2nonc2c1` has an IC50 [1] of 3.1 nM.

With `O=C(O)[C@@H](CO)NCc1cc(Cl)c(OCc2cccc(-c3cccc(OCCCCN4CCNCC4)c3)c2Cl)cc1OCc1ccc2nonc2c1` the IC50 [1] was 42.1 nM.

With `O=C(O)[C@@H](CO)NCc1cc(Cl)c(OCc2cccc(-c3cccc(OCCCCN4CCC(CO)CC4)c3)c2Cl)cc1OCc1ccc2nonc2c1` the IC50 [1] was 3.5 nM.

In the case of `O=C(O)[C@@H](CO)NCc1cc(Cl)c(OCc2cccc(-c3ccccc3)c2Br)cc1OCc1ccc2nonc2c1` [listing 2 of 3 here], the Activity (CHO-K1 [5]) is reported as “Non-Toxic”.

`O=C(O)[C@@H](CO)NCc1cc(Cl)c(OCc2cccc(-c3ccccc3)c2Br)cc1OCc1ccc2nonc2c1` [listing 3 of 3 here] showed an inhibition in vivo at 5 mg/kg (MC-38 [6]) of 52.5%.

In the case of `O=C(O)[C@@H](CO)NCc1cc(Cl)c(OCc2cccc(-c3cccc(OCCCNCCN4CCCCC4)c3)c2Cl)cc1OCc1ccc2nonc2c1`, the IC50 [1] is reported as 23.8 nM.

`O=C(O)[C@@H](CO)NCc1cc(Cl)c(OCc2cccc(-c3cccc(OCCCCN4CCOCC4)c3)c2F)cc1OCc1ccc2nonc2c1` showed an IC50 [1] of 21.2 nM.

Work on `O=C(O)[C@@H](CO)NCc1cc(Cl)c(OCc2cccc(-c3cccc(OCCCN4CCOCC4)c3)c2Cl)cc1OCc1ccc2nonc2c1` yielded an IC50 [1] of 34.7 nM.

`O=C(O)[C@@H](CO)NCc1cc(Cl)c(OCc2cccc(-c3cccc(OCCCN4CCC(O)CC4)c3)c2Cl)cc1OCc1ccc2nonc2c1` gave an IC50 [1] of 2.02 nM, an EC50 [7] of 158 nM and an Activity [2] of 2.2 RLU. The Activity (Jurkat) was “Active”, the Activity (CHO-K1 [5]) was “Non-Toxic” and the inhibition [3] was “inactive”. It also gave a Kd [8] of 22.9 nM.

`O=C(O)[C@@H](CO)NCc1cc(Cl)c(OCc2cccc(-c3cccc(OCCCN(CCO)CCO)c3)c2Cl)cc1OCc1ccc2nonc2c1` showed an IC50 [1] of 5.4 nM, an EC50 [7] of 353 nM and an Activity [2] of 2 RLU. The Activity (Jurkat) was “Active”, the Activity (CHO-K1 [5]) was “Non-Toxic” and the inhibition [3] was “inactive”. It also gave a Kd [8] of 34.1 nM.

`O=C(O)[C@@H](CO)NCc1cc(Cl)c(OCc2cccc(-c3cccc(OCCCNS(=O)(=O)N4CCOCC4)c3)c2Cl)cc1OCc1ccc2nonc2c1` gave an IC50 [1] of 87.6 nM.

Work on `O=C(O)[C@@H](CO)NCc1cc(Cl)c(OCc2cccc(-c3cccc(OCCN4CCC(O)CC4)c3)c2Cl)cc1OCc1ccc2nonc2c1` yielded an IC50 [1] of 40.5 nM.

Work on `COP(=O)(NCCCOc1cccc(-c2cccc(COc3cc(OCc4ccc5nonc5c4)c(CN[C@H](CO)C(=O)O)cc3Cl)c2Cl)c1)OC` yielded an IC50 [1] of 746 nM.

`O=C(O)[C@@H](CO)NCc1cc(Cl)c(OCc2cccc(-c3cccc(OCCN(CCO)CCO)c3)c2Cl)cc1OCc1ccc2nonc2c1` gave an IC50 [1] of 109 nM.

With `O=C(O)[C@@H](CO)NCc1cc(Cl)c(OCc2cccc(-c3cccc(OCCCNCCO)c3)c2Cl)cc1OCc1ccc2nonc2c1` the IC50 [1] was 6.1 nM.

With `O=C(O)[C@@H](CO)NCc1cc(Cl)c(OCc2cccc(-c3cccc(OCCCN4CCC(O)CC4)c3)c2F)cc1OCc1ccc2nonc2c1` the IC50 [1] was 13 nM, the EC50 [7] was 153 nM and the Activity [2] was 2.3 RLU. For the same compound, the Activity (Jurkat) was “Active”, the Activity (CHO-K1 [5]) was “Non-Toxic” and the inhibition [3] was “inactive”. The Activity (PBMC [9]) was “Dose-Dependent Effect”, the Activity (PBMC [10]) was “Dose-Dependent Effect” and the Activity (PBMC [11]) was “inactive”. The Activity (CHO-K1 [12]) was “Dose-Dependent Effect”, the Activity (CHO-K1 [13]) was “Active” and the Activity (CHO-K1 [14]) was “Active”. The Activity (CHO-K1 [15]) was “Active”, the Kd [8] was 2 nM and the half-life [16] was 5.3 h. The Kd [17] was 31.8 nM, the Tmax [18] was 6 min and the Cmax [19] was 45.6 ng/mL. For the same compound, the AUC(0-t) at 24 h [20] was 82.1 ng·h/mL, the logD [21] was 0.67 and the solubility [22] was 23.6 µM (≈ 17.4 µg/mL). The half-life [23] was 1.95 h, the Activity [24] was “Non-Toxic” and the Activity [25] was “Non-Toxic”. For the same compound, the “inhibition (INH)” value [26] was “Not Active”, the Activity (MC-38 [27]) was “inactive” and the Activity (CT26) was “inactive”.

For `O=C(O)[C@@H](CO)NCc1cc(Cl)c(OCc2cccc(-c3cccc(OCCCN4CCOCC4)c3)c2F)cc1OCc1ccc2nonc2c1`, the IC50 [1] was 12.5 nM.
